In US10238633B2, “Methods for treating pulmonary emphysema using substituted 2-Aza-bicyclo[2.2.1]heptane-3-carboxylic acid (benzyl-cyano-methyl)-amides inhibitors of Cathepsin C” (Boehringer Ingelheim International GmbH, priority 2013, dated 2019) one finds IC50 data, which are given here for 43 molecules.

Structures are written as SMILES.

In this experiment the test system is Neutrophil elastase activity in U937 cells. The experiment can be described thus: Determination of neutrophil elastase activity in U937 cytosolic lysate preparation after incubation with test compound. The experiment is classed as cell-based. The note with it: Homo sapiens, U-937, read-out: Reduction of NE-activity in U937 cells IC50. As for the experimental part: Determination of Neutrophil Elastase Activity in U937 Cytosolic Lysate Preparation after Incubation with Test Compound
Optiplate 384F were purchased from PerkinElmer (Prod. No. #6007270). 24 well Nunclon cell culture plates (No. 142475) and 96 well plates (No. 267245) were from Nunc. Dimethylsulfoxid (DMSO) was from Sigma (Prod. No. D8418). Nonidet-P40 (NP40) was from USBiological (Prod. No. N3500)
Substrate, specific for Neutrophil elastase, was from Bachem (MeOSuc-Ala-Ala-Pro-Val-AMC; Prod. No. 1-1270).
Human neutrophil elastase was from Calbiochem (Prod. No. 324681)
Tris-buffer (100 mM Tris; 1M NaCL; pH 7.5)
Tris-buffer+HSA 0.1%; Human Serum Albumin from Calbiochem (Cat#. 126658)
Serine-protease buffer (20 mM Tris; 100 mM NaCL; pH 7.5)+0.1% HSA
Serine protease lysis buffer: 20 mM Tris-HCL; 100 mM NaCl pH 7.5; +0.2% Nonidet-P40;
PBS: phosphate buffered saline, without Ca and Mg, from Gibco
U937 from ECACC (Cat. No. 85011440) cultured in suspension at 37° C. and 5% CO2.
Cell density: 0.2-1 Mio. Cells/ml.
Medium: RPMI1640 GlutaMAX (No. 61870) with 10% FCS from Gibco
Cell Seeding and Treatment:
Compounds in 100% DMSO were diluted in Medium (—FCS) with 10% DMSO and further diluted according to the experiment planned.
20 μl of the compound solution was transferred in the respective wells of the 24 well plate and diluted with 2 ml cell suspension/well containing […] (final concentration of DMSO=0.1%). Compound dilution factor=100
Compounds (up to 7 concentrations) were tested in triplicates with 3 wells for the DMSO 0.1% control, incubated for 48 hours without medium change at 37° C., 5% CO2 and 95% relative humidity.
Cell Harvesting and Cell Lysate:
Transfer the cell suspension in 2.2 ml Eppendorf cups. Separate cells from medium by centrifugation (400×g; 5 min; RT); discard the supernatant. Resuspend in 1 ml PBS; centrifugation (400×g; 5 min; RT); wash cells twice with PBS. Add 100 μl Serin lysis buffer (ice cold) to the cell pellet; resuspend the pellet and store on ice for 15 minutes. Remove debris by centrifugation at 15000×g for 10 min at 4° C. Transfer 80-100 μl lysate supernatant in 96 well plate and store immediately at −80° C.
Neutrophil Elastase Activity Assay:
Frozen lysates were thawn at 37° C. for 10 minutes and stored on ice. Protein content was determined with Bradford protein assay. Lysates were diluted to 0.2-0.5 mg/ml protein in serine protease buffer+HSA.
Standard: NE (100 μg/ml stock solution in Tris-buffer; stored at −80° C.) was diluted in Tris-buffer+HSA to 750 ng/ml, and further serially diluted 1:2 for the standard curve.
Buffer, blank, standard and lysate samples were transferred into 384 well plate
Blank: 5 μl Tris-buffer+10 μl Tris-buffer+HSA+5 μl Substrate
Standard: 5 μl Tris-buffer+10 μl NE (diff. conc.)+5 μl Substrate
Lysate: 5 μl Tris-buffer+10 μl Lysat+[…] Substrate
The increase in fluorescence (Ex360 nm/Em 460 nm) is determined over 30 minutes with a Molecular Device Spectramax M5 Fluorescence Reader. Kinetic Reduction (Vmax units/sec); 4 vmax points. The amount of neutrophil elastase (ng/ml) is calculated using the standard curve and the Spectramax software. The result is interpolated to ng/mg lysate protein using excel formula functions. […] IC50 is calculated using Graphpad Prism; nonlinear fitting (log(inhibitor) vs. response—Variable slope).
As usually defined, the IC50 is the concentration needed to halve the response being measured. Consider `N#C[C@H](Cc1ccc(N2CCN3CCOC[C@@H]3C2)cc1F)NC(=O)[C@H]1N[C@@H]2CC[C@H]1C2` [Example 249], for which the IC50 came out at 16.5 nM.

On to `N#C[C@H](Cc1ccc(N2CCN3CCOC[C@H]3C2)cc1F)NC(=O)[C@H]1N[C@@H]2CC[C@H]1C2` [Example 250], for which the IC50 came to 11.5 nM.

On to `CNc1nc2cc(-c3ccc(C[C@@H](C#N)NC(=O)[C@H]4N[C@@H]5CC[C@H]4C5)c(F)c3)ccc2n1C` [Example 253], for which the IC50 turned out to be 5.5 nM.

With `Cn1cc(-c2ccc(C[C@@H](C#N)NC(=O)[C@H]3N[C@@H]4CC[C@H]3C4)c(F)c2)ccc1=O` [Example 254], the IC50 amounted to 30.5 nM.

As to `CC(C)N1CCCN(c2ccc(C[C@@H](C#N)NC(=O)[C@H]3N[C@@H]4CC[C@H]3C4)c(F)c2)CC1` [Example 267], the IC50 is 2.7 nM.

`CO[C@@H]1C[C@@H]2CN(c3ccc(C[C@@H](C#N)NC(=O)[C@H]4N[C@@H]5CC[C@H]4C5)c(F)c3)CCN2C1` [Example 269]: the IC50 amounted to 5.5 nM.

Take `N#C[C@H](Cc1ccc(N2CCN3CCC[C@H]3C2)cc1F)NC(=O)[C@H]1N[C@@H]2CC[C@H]1C2` [Example 270]: the 50% inhibitory concentration (IC50) was determined as 1.4 nM.

In the case of `CCN1CCN(c2ccc(C[C@@H](C#N)NC(=O)[C@H]3N[C@@H]4CC[C@H]3C4)c(F)c2)CC1` [Example 272], the half-inhibitory concentration (IC50) is 2.4 nM.

For the molecule `CN(C)CCCN1C(=O)Cc2ccc(-c3ccc(C[C@@H](C#N)NC(=O)[C@H]4N[C@@H]5CC[C@H]4C5)c(F)c3)cc21` [Example 277], the IC50 is 3.6 nM.

Turning to `CN(C)CCN1C(=O)Cc2ccc(-c3ccc(C[C@@H](C#N)NC(=O)[C@H]4N[C@@H]5CC[C@H]4C5)c(F)c3)cc21` [Example 278], the IC50 was found to be 1 nM.

For `CN(C)CCN1C(=O)Cc2cc(-c3ccc(C[C@@H](C#N)NC(=O)[C@H]4N[C@@H]5CC[C@H]4C5)c(F)c3)ccc21` [Example 279], the IC50 worked out at 1.9 nM.

Regarding `N#C[C@H](Cc1ccc(C2=CCN3CCOCC3C2)cc1F)NC(=O)[C@H]1N[C@@H]2CC[C@H]1C2` (stereo partly shown) [Example 281], the IC50 is 1.9 nM.

`N#C[C@H](Cc1ccc(C2=CC3COCCN3CC2)cc1F)NC(=O)[C@H]1N[C@@H]2CC[C@H]1C2` (stereo partly shown) [Example 282]: the IC50 amounted to 3.4 nM.

On to `N#C[C@H](Cc1ccc([C@@H]2CCN3CCOC[C@H]3C2)cc1F)NC(=O)[C@H]1N[C@@H]2CC[C@H]1C2` [Example 283], for which the IC50 is 4.5 nM.

On to `N#C[C@H](Cc1ccc([C@H]2CCN3CCOC[C@H]3C2)cc1F)NC(=O)[C@H]1N[C@@H]2CC[C@H]1C2` [Example 284], for which the IC50 stood at 5.3 nM.

For `CN1CCN(C(=O)c2ccc(-c3ccc(C[C@@H](C#N)NC(=O)[C@H]4N[C@@H]5CC[C@H]4C5)c(F)c3)o2)CC1` [Example 289], the IC50 stood at 3.9 nM.

As for `N#CC(Cc1cc2c(=O)[nH]c3cc(F)ccc3c2cc1F)NC(=O)[C@H]1N[C@@H]2CC[C@H]1C2` (stereo partly shown) [Example 293], the IC50 amounted to 4.6 nM.

`N#CC(Cc1cc2c(=O)[nH]c3ccccc3c2cc1F)NC(=O)[C@H]1N[C@@H]2CC[C@H]1C2` (stereo partly shown) [Example 294]: the IC50 came to 7.8 nM.

Regarding `N#CC(Cc1cc2c(=O)[nH]c3ccc(F)cc3c2cc1F)NC(=O)[C@H]1N[C@@H]2CC[C@H]1C2` (stereo partly shown) [Example 295], the IC50 came to 8.6 nM.

As to `N#CC(Cc1ccc2c(c1)c(=O)[nH]c1c(F)c(F)ccc12)NC(=O)[C@H]1N[C@@H]2CC[C@H]1C2` (stereo partly shown) [Example 300], the IC50 came out at 8.9 nM.

For the molecule `Cn1c(=O)c2cc(CC(C#N)NC(=O)[C@H]3N[C@@H]4CC[C@H]3C4)ccc2c2ccc(C#N)cc21` (stereo partly shown) [Example 303], the IC50 came to 8.3 nM.

Consider `CN1CCC(Oc2ccc(C[C@@H](C#N)NC(=O)[C@H]3N[C@@H]4CC[C@H]3C4)c(F)c2)CC1` [Example 319, (1S,2S,4R)—N-[(1S)-1-cyano-2-[2-fluoro-4-[(1-methyl-4-piperidyl)oxy]phenyl]ethyl]-3-azabicyclo[2.2.1]heptane-2-carboxamide], for which the half-maximal inhibitory concentration (IC50) was found to be 9.3 nM.

As for `CCN1CC=C(c2ccc(C[C@@H](C#N)NC(=O)[C@H]3N[C@@H]4CC[C@H]3C4)c(F)c2)CC1` [Example 320], the IC50 was determined as 3.7 nM.

On to `N#C[C@H](Cc1cc2c(=O)[nH]c3ccccc3c2cc1F)NC(=O)[C@H]1N[C@@H]2CC[C@H]1C2` [Example 322], for which the IC50 was determined as 2.1 nM.

For the molecule `N#C[C@H](Cc1cc2c(=O)[nH]c3cc(F)ccc3c2cc1F)NC(=O)[C@H]1N[C@@H]2CC[C@H]1C2` [Example 323], the IC50 turned out to be 1.4 nM.

Regarding `N#C[C@H](Cc1cc2c(=O)[nH]c3c(F)c(F)ccc3c2cc1F)NC(=O)[C@H]1N[C@@H]2CC[C@H]1C2` [Example 324], the IC50 was 1.3 nM.

Consider `N#Cc1cc(F)c2[nH]c(=O)c3cc(C[C@@H](C#N)NC(=O)[C@H]4N[C@@H]5CC[C@H]4C5)c(F)cc3c2c1` [Example 325], for which the IC50 stood at 4.7 nM.

Take `Cn1c(=O)c2cc(C[C@@H](C#N)NC(=O)[C@H]3N[C@@H]4CC[C@H]3C4)c(F)cc2c2ccccc21` [Example 326]: the IC50 turned out to be 1.9 nM.

On to `CN1CC2CCC(C1)N2c1ccc(C[C@@H](C#N)NC(=O)[C@H]2N[C@@H]3CC[C@H]2C3)c(F)c1` [Example 328], for which the IC50 amounted to 1.2 nM.

Consider `N#C[C@H](Cc1ccc(N2C3CCC2CN(C2CCOC2)C3)cc1F)NC(=O)[C@H]1N[C@@H]2CC[C@H]1C2` (stereo partly shown) [Example 329], for which the IC50 turned out to be 2.5 nM.

In the case of `CN1CC2(C1)CN(c1ccc(C[C@@H](C#N)NC(=O)[C@H]3N[C@@H]4CC[C@H]3C4)c(F)c1)C2` [Example 330], the IC50 was 37.7 nM.

Turning to `N#C[C@H](Cc1ccc(N2CCN(C3CCOC3)CC2)cc1F)NC(=O)[C@H]1N[C@@H]2CC[C@H]1C2` (stereo partly shown) [Example 331], the IC50 is 6 nM.

With `N#C[C@H](Cc1ccc(C2=CCN(C3CCOC3)CC2)cc1F)NC(=O)[C@H]1N[C@@H]2CC[C@H]1C2` (stereo partly shown) [Example 332], the IC50 stood at 5.8 nM.

Take `CN1C2CCC1CN(c1ccc(C[C@@H](C#N)NC(=O)[C@H]3N[C@@H]4CC[C@H]3C4)c(F)c1)C2` [Example 333]: the IC50 was determined as 4.7 nM.

Take `CN1CCN(S(=O)(=O)c2cc(-c3ccc(C[C@@H](C#N)NC(=O)[C@H]4N[C@@H]5CC[C@H]4C5)c(F)c3)ccc2F)CC1` [Example 339]: the IC50 was 0.6 nM.

As to `CN1CCCN(S(=O)(=O)c2ccc(-c3ccc(C[C@@H](C#N)NC(=O)[C@H]4N[C@@H]5CC[C@H]4C5)c(F)c3)cc2)CC1` [Example 340], the IC50 turned out to be 0.8 nM.

In the case of `CN(C)CCn1cc(-c2ccc(C[C@@H](C#N)NC(=O)[C@H]3N[C@@H]4CC[C@H]3C4)c(F)c2)ccc1=O` [Example 342], the IC50 was determined as 24.7 nM.

Turning to `N#C[C@H](Cc1ccc(-c2ccc(=O)n(CC(F)F)c2)cc1F)NC(=O)[C@H]1N[C@@H]2CC[C@H]1C2` [Example 343], the IC50 stood at 16.9 nM.

With `CN(C)C1CCCN(c2ccc(C[C@@H](C#N)NC(=O)[C@H]3N[C@@H]4CC[C@H]3C4)c(F)c2)C1` (stereo partly drawn) [Example 344, (1S,2S,4R)—N-[(1S)-1-cyano-2-[4-[3-(dimethylamino)-1-piperidyl]-2-fluoro-phenyl]ethyl]-3-azabicyclo[2.2.1]heptane-2-carboxamide], the IC50 turned out to be 4.1 nM.

Take `CN(C)CC1CCCN(c2ccc(C[C@@H](C#N)NC(=O)[C@H]3N[C@@H]4CC[C@H]3C4)c(F)c2)C1` (stereo partly shown) [Example 345]: the IC50 stood at 6.9 nM.

`CN1CCC(N2C(=O)Cc3ccc(-c4ccc(C[C@@H](C#N)NC(=O)[C@H]5N[C@@H]6CC[C@H]5C6)c(F)c4)cc32)CC1` [Example 346]: the IC50 was 6.8 nM.

For the molecule `CN1CCC2CN(c3ccc(C[C@@H](C#N)NC(=O)[C@H]4N[C@@H]5CC[C@H]4C5)c(F)c3)CC21` (stereo partly shown) [Example 349], the IC50 worked out at 2.8 nM.

Turning to `CN1CCC2(CC1)CC(c1ccc(C[C@@H](C#N)NC(=O)[C@H]3N[C@@H]4CC[C@H]3C4)c(F)c1)C2` [Example 358], the IC50 came to 3.7 nM.
